Assay results as given in PubChem BioAssay (NCI).
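A five-concentration, 48-hour dose response in 96-well plates underlies each endpoint, interpolated linearly between surrounding concentrations. GI50 = concentration required for 50% inhibition of growth. Definition used: TGI = concentration required for complete inhibition of growth.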

Tests used:
Test in all cases: growth of human tumour cells (NCI), 48 h
[1] = test system: 786-0 renal
[2] = test system: A498 renal
[3] = test system: A549 NSCLC
[4] = test system: ACHN renal
[5] = test system: BT-549 breast
[6] = test system: CAKI-1 renal
[7] = test system: CCRF-CEM leukemia
[8] = test system: COLO 205 colon
[9] = test system: DU-145 prostate
[10] = test system: EKVX NSCLC
[11] = test system: HCC-2998 colon
[12] = test system: HCT-116 colon
[13] = test system: HCT-15 colon
[14] = test system: HL-60(TB) leukemia
[15] = test system: HOP-62 NSCLC
[16] = test system: HOP-92 NSCLC
[17] = test system: HS 578T breast
[18] = test system: HT29 colon
[19] = test system: IGROV1 ovarian
[20] = test system: K-562 leukemia
[21] = test system: KM12 colon
[22] = test system: LOX IMVI melanoma
[23] = test system: M14 melanoma
[24] = test system: MALME-3M melanoma
[25] = test system: MCF7 breast
[26] = test system: MDA-MB-231 breast
[27] = test system: MDA-MB-435
[28] = test system: MDA-N
[29] = test system: MOLT-4 leukemia
[30] = test system: NCI-H226 lung
[31] = test system: NCI-H23 lung
[32] = test system: NCI-H460 lung
[33] = test system: NCI-H522 lung
[34] = test system: OVCAR-3 ovarian
[35] = test system: OVCAR-5 ovarian
[36] = test system: OVCAR-8 ovarian
[37] = test system: PC-3 prostate
[38] = test system: RPMI-8226 leukemia
[39] = test system: RXF 393 renal
[40] = test system: SF-268 CNS
[41] = test system: SF-295 CNS
[42] = test system: SF-539 CNS
[43] = test system: SK-MEL-2 melanoma
[44] = test system: SK-MEL-28 melanoma
[45] = test system: SK-MEL-5 melanoma
[46] = test system: SK-OV-3 ovarian
[47] = test system: SN12C renal
[48] = test system: SNB-19 CNS
[49] = test system: SNB-75 CNS
[50] = test system: SR leukemia
[51] = test system: SW-620 colon
[52] = test system: T-47D breast
[53] = test system: TK-10 renal
[54] = test system: U251 CNS
[55] = test system: UACC-257 melanoma
[56] = test system: UACC-62 melanoma
[57] = test system: UO-31 renal
[58] = test system: OVCAR-4 ovarian
[59] = test system: NCI/ADR-RES ovarian

## CC1C(c2ccccc2O)c2cc3c(cc2OC1N1CCOCC1)OCO3 (stereo not given)
[1]
  TGI: > 100000 nM
[2]
  TGI: 52100 nM
[3]
  TGI: 80700 nM
[4]
  TGI: > 100000 nM
[5]
  TGI: > 100000 nM
[6]
  TGI: 77500 nM
[7]
  TGI: 61300 nM
[8]
  TGI: 46600 nM
[9]
  TGI: > 100000 nM
[10]
  TGI: > 100000 nM
[11]
  TGI: 64300 nM
[12]
  TGI: 75900 nM
[13]
  TGI: > 100000 nM
[14]
  TGI: 40000 nM
[15]
  TGI: 35800 nM
[16]
  TGI: 71100 nM
[17]
  TGI: 57900 nM
[18]
  TGI: 68400 nM
[19]
  TGI: > 100000 nM
[20]
  TGI: 90600 nM
[21]
  TGI: 91600 nM
[22]
  TGI: 41300 nM
[23]
  TGI: > 100000 nM
[24]
  TGI: 35100 nM
[25]
  TGI: > 100000 nM
[26]
  TGI: 73900 nM
[27]
  TGI: 82800 nM
[28]
  TGI: > 100000 nM
[29]
  TGI: 83700 nM
[30]
  TGI: 77400 nM
[31]
  TGI: 81000 nM
[32]
  TGI: 49200 nM
[33]
  TGI: 37800 nM
[34]
  TGI: 60600 nM
[35]
  TGI: > 100000 nM
[36]
  TGI: > 100000 nM
[37]
  TGI: > 100000 nM
[38]
  TGI: 39100 nM
[39]
  TGI: 48900 nM
[40]
  TGI: > 100000 nM
[41]
  TGI: 62000 nM
[42]
  TGI: 46500 nM
[43]
  TGI: 72500 nM
[44]
  TGI: > 100000 nM
[45]
  TGI: 62300 nM
[46]
  TGI: > 100000 nM
[47]
  TGI: > 100000 nM
[48]
  TGI: > 100000 nM
[49]
  TGI: 91300 nM
[50]
  TGI: 29500 nM
[51]
  TGI: > 100000 nM
[52]
  TGI: > 100000 nM
[53]
  TGI: 97600 nM
[54]
  TGI: 64700 nM
[55]
  TGI: 47000 nM
[56]
  TGI: 90200 nM
[57]
  TGI: > 100000 nM

## CCC[CH2][Pb]([Cl])([CH2]CCC)[CH2]CCC
[1]
  GI50: 17.7 nM
  TGI: 37 nM
[2]
  GI50: 48.3 nM
  TGI: 148 nM
[3]
  GI50: 26.4 nM
  TGI: 93.6 nM
[4]
  GI50: 22.1 nM
  TGI: 55.8 nM
[5]
  GI50: 31 nM
  TGI: 137 nM
[6]
  GI50: 67.3 nM
  TGI: 199 nM
[7]
  GI50: 55.3 nM
  TGI: 1150 nM
[8]
  GI50: 19.4 nM
  TGI: 35.8 nM
[9]
  GI50: 97.8 nM
  TGI: 220 nM
[10]
  GI50: 66 nM
  TGI: 218 nM
[11]
  GI50: 43.9 nM
  TGI: 136 nM
[12]
  GI50: 17.6 nM
  TGI: 34.5 nM
[13]
  GI50: 19.5 nM
  TGI: 48.7 nM
[14]
  GI50: 23.2 nM
  TGI: 44.4 nM
[15]
  GI50: 128 nM
  TGI: 258 nM
[16]
  GI50: 58 nM
  TGI: 196 nM
[17]
  GI50: 31.7 nM
  TGI: 91.3 nM
[18]
  GI50: 25.2 nM
  TGI: 64.5 nM
[19]
  GI50: 60.3 nM
  TGI: 179 nM
[20]
  GI50: 27.7 nM
  TGI: 931 nM
[21]
  GI50: 32.6 nM
  TGI: 81 nM
[22]
  GI50: 22.3 nM
  TGI: 45 nM
[23]
  GI50: 19.2 nM
  TGI: 41.7 nM
[24]
  GI50: 4.28 nM
  TGI: 26.1 nM
[25]
  GI50: 16.1 nM
  TGI: 36.1 nM
[26]
  GI50: 32.8 nM
  TGI: 122 nM
[27]
  GI50: 17.8 nM
  TGI: 36.6 nM
[28]
  GI50: 19.6 nM
  TGI: 46.1 nM
[29]
  GI50: 24.5 nM
  TGI: 731 nM
[31]
  GI50: 29.8 nM
  TGI: 116 nM
[32]
  GI50: 17.7 nM
  TGI: 41.7 nM
[33]
  GI50: 32.1 nM
  TGI: 104 nM
[34]
  GI50: 20.4 nM
  TGI: 49.9 nM
[58]
  GI50: 47.2 nM
  TGI: 184 nM
[35]
  GI50: 34 nM
  TGI: 134 nM
[36]
  GI50: 20.6 nM
  TGI: 46.4 nM
[37]
  GI50: 35.5 nM
  TGI: 119 nM
[38]
  GI50: 15.7 nM
  TGI: 53.1 nM
[39]
  GI50: 23.1 nM
  TGI: 63.5 nM
[40]
  GI50: 19.2 nM
  TGI: 67.7 nM
[41]
  GI50: 130 nM
  TGI: 260 nM
[42]
  GI50: 33.8 nM
  TGI: 89.2 nM
[43]
  GI50: 22.9 nM
  TGI: 72.4 nM
[44]
  GI50: 27.6 nM
  TGI: 79.2 nM
[45]
  GI50: 53.4 nM
  TGI: 128 nM
[46]
  GI50: 120 nM
  TGI: 257 nM
[47]
  GI50: 15.2 nM
  TGI: 29.4 nM
[48]
  GI50: 188 nM
  TGI: 330 nM
[49]
  GI50: 21.5 nM
  TGI: 114 nM
[50]
  GI50: 67.1 nM
[51]
  GI50: 18.5 nM
  TGI: 34.5 nM
[52]
  GI50: 18.1 nM
  TGI: 38.3 nM
[53]
  GI50: 31.7 nM
  TGI: 91.3 nM
[54]
  GI50: 16.1 nM
  TGI: 30.4 nM
[55]
  GI50: 58.9 nM
  TGI: 157 nM
[56]
  GI50: 45.9 nM
  TGI: 112 nM
[57]
  GI50: 31 nM
  TGI: 80.9 nM

## Cn1c(N=P(c2ccccc2)(c2ccccc2)c2ccccc2)c([N+](=O)[O-])c(=O)n(C)c1=O
[1]
  TGI: > 100000 nM
[2]
  TGI: > 100000 nM
[3]
  TGI: > 100000 nM
[4]
  TGI: > 100000 nM
[5]
  TGI: > 100000 nM
[6]
  TGI: > 100000 nM
[7]
  TGI: 76600 nM
[8]
  TGI: > 100000 nM
[10]
  TGI: > 100000 nM
[11]
  TGI: > 100000 nM
[12]
  TGI: > 100000 nM
[13]
  TGI: > 100000 nM
[15]
  TGI: > 100000 nM
[16]
  TGI: > 100000 nM
[17]
  TGI: > 100000 nM
[18]
  TGI: > 100000 nM
[19]
  TGI: > 100000 nM
[20]
  TGI: > 100000 nM
[21]
  TGI: 80400 nM
[22]
  TGI: > 100000 nM
[23]
  TGI: > 100000 nM
[24]
  TGI: > 100000 nM
[25]
  TGI: > 100000 nM
[26]
  TGI: > 100000 nM
[27]
  TGI: > 100000 nM
[28]
  TGI: > 100000 nM
[29]
  TGI: 66800 nM
[30]
  TGI: > 100000 nM
[31]
  TGI: > 100000 nM
[32]
  TGI: > 100000 nM
[33]
  TGI: > 100000 nM
[59]
  TGI: > 100000 nM
[34]
  TGI: > 100000 nM
[58]
  TGI: > 100000 nM
[35]
  TGI: > 100000 nM
[36]
  TGI: 75300 nM
[37]
  TGI: > 100000 nM
[38]
  TGI: > 100000 nM
[39]
  TGI: > 100000 nM
[40]
  TGI: > 100000 nM
[41]
  TGI: > 100000 nM
[42]
  TGI: > 100000 nM
[43]
  TGI: > 100000 nM
[45]
  TGI: > 100000 nM
[46]
  TGI: > 100000 nM
[47]
  TGI: > 100000 nM
[48]
  TGI: > 100000 nM
[49]
  TGI: 91800 nM
[51]
  TGI: > 100000 nM
[52]
  TGI: > 100000 nM
[53]
  TGI: > 100000 nM
[54]
  TGI: > 100000 nM
[55]
  TGI: > 100000 nM
[56]
  TGI: > 100000 nM
[57]
  TGI: > 100000 nM
